Laboratory results published in patent US20220356398A1, “Composition and Method for Improving the Water Transport Characteristics of Hydrophobic Soils” (Ethox Chemicals, LLC, priority 2021, published 2022).

Tests used:
[1] = Humic acid removal (detergency)
Excerpt: (§1) Soil treatment polymers are relatively non-polar organic materials with limited water solubility.

[2] = Compatibility with the soil treatment polymers; assay type: physicochemical
Excerpt: as §1

In the case of monophosphate of POE (6) decyl alcohol, the “humic acid removal properties” value [1] is reported as “good humic acid removal properties” and the “compatibility with the soil treatment polymers” value [2] is reported as “good compatibility”.
